Earlier results, collected in patent publication US20230066502A1, “PREDICTION METHOD FOR INDICATION OF AIMED DRUG OR EQUIVALENT SUBSTANCE OF DRUG, PREDICTION APPARATUS, AND PREDICTION PROGRAM” (KARYDO THERAPEUTIX, INC., priority 2020, published 2023).

Conditions: for occurrence frequency of adverse event Blood glucose decreased / occurrence frequency of adverse event Sleep disorder: FIG. 3 example of training data, already reported adverse event-related information, cases of this adverse event / total adverse event cases for the drug; for occurrence frequency of adverse event Low blood sugar / occurrence frequency of adverse event sleepiness: FIG. 7 example of second training data calculated from FAERS adverse event data, maximum value 1

| SMILES | occurrence frequency of adverse event Blood glucose decreased | occurrence frequency of adverse event Sleep disorder | occurrence frequency of adverse event Low blood sugar | occurrence frequency of adverse event sleepiness |
| --- | --- | --- | --- | --- |
| OC[C@H]1O[C@@H](c2ccc(Cl)c(Cc3ccc(O[C@H]4CCOC4)cc3)c2)[C@H](O)[C@@H](O)[C@@H]1O [EMPA, empagliflozin] | 0.141 | 0.007 | 0.12 | 0.01 |
| O=C1CCc2ccc(OCCCCN3CCN(c4cccc(Cl)c4Cl)CC3)cc2N1 [aripiprazole] | 0.009 | 0.026 | 0.0 | 0.5 |
